The NIST ThermoML archive (doi:10.1016/j.jct.2017.10.002)
Where “and” joins values, the source holds several entries; their conditions need not be identical. Identical values can stand only once. ± gives the expanded uncertainty stated by the source.

Test: molar heat capacity at constant pressure
Conditions: 101.33 kPa, relaxation calorimetry

CCc1ncc[n-]1.CCc1ncc[n-]1.[Zn+2] [zinc(II) 2-ethylimidazolide]
molar heat capacity at constant pressure
Conditions	Crystal	Glass
1 K	–	0.01063 ± 0.00094 J/K/mol
1.832 K	0.0493 ± 0.0038 J/K/mol	–
1.836 K	0.01638 ± 0.0012 J/K/mol	–
1.837 K	0.04503 ± 0.0034 J/K/mol	–
1.839 K	–	0.03581 ± 0.0028 J/K/mol
1.88 K	0.05213 ± 0.004 J/K/mol	–
1.914 K	0.04977 ± 0.0037 J/K/mol	–
1.915 K	–	0.04142 ± 0.0031 J/K/mol
1.916 K	0.0188 ± 0.0014 J/K/mol	–
1.932 K	0.05559 ± 0.0042 J/K/mol	–
1.989 K	0.0603 ± 0.0046 J/K/mol	–
2 K	0.0589 ± 0.0042 J/K/mol [middle of 4 runs]	0.04827 ± 0.003 J/K/mol
2.001 K	–	0.04687 ± 0.0036 J/K/mol
2.005 K	0.02171 ± 0.0016 J/K/mol	–
2.051 K	0.06589 ± 0.0048 J/K/mol	–
2.09 K	0.06722 ± 0.0046 J/K/mol	–
2.091 K	–	0.05348 ± 0.0039 J/K/mol
2.099 K	0.02469 ± 0.0017 J/K/mol	–
2.118 K	0.07352 ± 0.0053 J/K/mol	–
2.183 K	0.07697 ± 0.005 J/K/mol	–
2.184 K	–	0.06212 ± 0.0041 J/K/mol
2.19 K	0.08177 ± 0.0055 J/K/mol	–
2.197 K	0.02817 ± 0.0019 J/K/mol	–
2.265 K	0.0916 ± 0.006 J/K/mol	–
2.283 K	0.08765 ± 0.0056 J/K/mol	–
2.285 K	–	0.07138 ± 0.0047 J/K/mol
2.301 K	0.03272 ± 0.0021 J/K/mol	–
2.346 K	0.1035 ± 0.0065 J/K/mol	–
2.41 K	0.03888 ± 0.0024 J/K/mol	–
2.411 K	0.1031 ± 0.0064 J/K/mol	–
2.417 K	–	0.08449 ± 0.0053 J/K/mol
2.488 K	0.1258 ± 0.0076 J/K/mol	–
2.509 K	–	0.09566 ± 0.0058 J/K/mol
2.512 K	0.1183 ± 0.0071 J/K/mol	–
2.516 K	0.04352 ± 0.0026 J/K/mol	–
2.61 K	0.1475 ± 0.0088 J/K/mol	–
2.615 K	0.135 ± 0.008 J/K/mol	–
2.639 K	0.0517 ± 0.0031 J/K/mol	–
2.646 K	–	0.1124 ± 0.0067 J/K/mol
2.733 K	0.1558 ± 0.0091 J/K/mol	–
2.738 K	–	0.1254 ± 0.0074 J/K/mol
2.739 K	0.1709 ± 0.01 J/K/mol	–
2.744 K	0.0566 ± 0.0033 J/K/mol	–
2.854 K	0.06599 ± 0.0039 J/K/mol	–
2.858 K	0.194 ± 0.011 J/K/mol	–
2.86 K	0.1727 ± 0.01 J/K/mol	–
2.868 K	–	0.1481 ± 0.0086 J/K/mol
2.979 K	0.1934 ± 0.011 J/K/mol	–
2.986 K	0.2216 ± 0.013 J/K/mol	0.1712 ± 0.0097 J/K/mol
2.992 K	0.07481 ± 0.0043 J/K/mol	–
3 K	0.2257 ± 0.013 J/K/mol and 0.076 ± 0.0044 J/K/mol and 0.2038 ± 0.012 J/K/mol	0.168 ± 0.0097 J/K/mol
3.106 K	0.08446 ± 0.0048 J/K/mol	–
3.109 K	0.2254 ± 0.013 J/K/mol	–
3.118 K	0.2529 ± 0.014 J/K/mol	–
3.122 K	–	0.1906 ± 0.011 J/K/mol
3.246 K	0.09833 ± 0.0056 J/K/mol	–
3.248 K	0.2525 ± 0.014 J/K/mol	–
3.259 K	0.2898 ± 0.017 J/K/mol	–
3.264 K	–	0.2232 ± 0.013 J/K/mol
3.388 K	0.2988 ± 0.017 J/K/mol	–
3.395 K	0.1127 ± 0.0064 J/K/mol	–
3.397 K	–	0.2534 ± 0.014 J/K/mol
3.407 K	0.3327 ± 0.019 J/K/mol	–
3.536 K	0.3331 ± 0.019 J/K/mol	–
3.537 K	0.1275 ± 0.0072 J/K/mol	–
3.551 K	–	0.2838 ± 0.016 J/K/mol
3.562 K	0.381 ± 0.021 J/K/mol	–
3.691 K	0.3887 ± 0.022 J/K/mol	–
3.692 K	0.1432 ± 0.008 J/K/mol	–
3.699 K	–	0.3307 ± 0.018 J/K/mol
3.737 K	0.4416 ± 0.025 J/K/mol	–
3.853 K	0.4343 ± 0.024 J/K/mol and 0.1693 ± 0.0094 J/K/mol	–
3.861 K	–	0.3658 ± 0.02 J/K/mol
3.916 K	0.5079 ± 0.028 J/K/mol	–
4 K	0.5386 ± 0.03 J/K/mol and 0.1872 ± 0.01 J/K/mol and 0.4762 ± 0.026 J/K/mol	0.4158 ± 0.023 J/K/mol
4.023 K	0.1911 ± 0.011 J/K/mol	–
4.024 K	0.4906 ± 0.027 J/K/mol	–
4.033 K	–	0.4343 ± 0.024 J/K/mol
4.093 K	0.5776 ± 0.032 J/K/mol	–
4.203 K	0.2234 ± 0.012 J/K/mol	–
4.204 K	0.5288 ± 0.029 J/K/mol	–
4.213 K	–	0.4859 ± 0.027 J/K/mol
4.288 K	0.6588 ± 0.036 J/K/mol	–
4.385 K	0.6193 ± 0.034 J/K/mol	–
4.39 K	0.2481 ± 0.014 J/K/mol	–
4.397 K	–	0.5485 ± 0.03 J/K/mol
4.475 K	0.7416 ± 0.041 J/K/mol	–
4.577 K	0.2815 ± 0.016 J/K/mol	–
4.58 K	0.6992 ± 0.038 J/K/mol	–
4.588 K	–	0.6228 ± 0.034 J/K/mol
4.673 K	0.833 ± 0.045 J/K/mol	–
4.782 K	0.3148 ± 0.017 J/K/mol	–
4.784 K	0.7873 ± 0.043 J/K/mol	–
4.797 K	–	0.7076 ± 0.039 J/K/mol
4.885 K	0.9362 ± 0.051 J/K/mol	–
4.995 K	0.8682 ± 0.047 J/K/mol and 0.3599 ± 0.02 J/K/mol	–
5 K	0.9962 ± 0.054 J/K/mol and 0.3674 ± 0.02 J/K/mol and 0.8773 ± 0.048 J/K/mol	0.8029 ± 0.044 J/K/mol
5.008 K	–	0.8138 ± 0.044 J/K/mol
5.104 K	1.051 ± 0.057 J/K/mol	–
5.217 K	0.968 ± 0.053 J/K/mol and 0.4058 ± 0.022 J/K/mol	–
5.228 K	–	0.8928 ± 0.049 J/K/mol
5.341 K	1.18 ± 0.064 J/K/mol	–
5.447 K	1.121 ± 0.061 J/K/mol	–
5.449 K	0.4865 ± 0.027 J/K/mol	–
5.457 K	–	1.022 ± 0.056 J/K/mol
5.583 K	1.326 ± 0.072 J/K/mol	–
5.686 K	0.5523 ± 0.03 J/K/mol	–
5.687 K	1.228 ± 0.067 J/K/mol	–
5.699 K	–	1.17 ± 0.063 J/K/mol
5.837 K	1.479 ± 0.08 J/K/mol	–
5.933 K	1.341 ± 0.072 J/K/mol	–
5.936 K	0.614 ± 0.033 J/K/mol	–
5.952 K	–	1.278 ± 0.069 J/K/mol
6 K	1.585 ± 0.086 J/K/mol and 0.6261 ± 0.034 J/K/mol and 1.401 ± 0.076 J/K/mol	1.321 ± 0.071 J/K/mol
6.1 K	1.651 ± 0.089 J/K/mol	–
6.189 K	1.538 ± 0.083 J/K/mol	–
6.195 K	0.6531 ± 0.035 J/K/mol	–
6.204 K	–	1.457 ± 0.079 J/K/mol
6.407 K	1.86 ± 0.1 J/K/mol	–
6.464 K	0.7855 ± 0.042 J/K/mol	–
6.465 K	1.656 ± 0.089 J/K/mol	–
6.479 K	–	1.613 ± 0.087 J/K/mol
6.685 K	2.057 ± 0.11 J/K/mol	–
6.752 K	1.863 ± 0.1 J/K/mol and 0.8975 ± 0.048 J/K/mol	–
6.765 K	–	1.809 ± 0.097 J/K/mol
6.98 K	2.277 ± 0.12 J/K/mol	–
7 K	2.294 ± 0.12 J/K/mol and 0.9817 ± 0.053 J/K/mol and 2.037 ± 0.11 J/K/mol	1.956 ± 0.11 J/K/mol
7.049 K	2.08 ± 0.11 J/K/mol and 1.007 ± 0.054 J/K/mol	–
7.062 K	–	1.981 ± 0.11 J/K/mol
7.296 K	2.524 ± 0.14 J/K/mol	–
7.357 K	2.322 ± 0.12 J/K/mol and 1.115 ± 0.06 J/K/mol	–
7.372 K	–	2.248 ± 0.12 J/K/mol
7.627 K	2.797 ± 0.15 J/K/mol	–
7.681 K	1.273 ± 0.069 J/K/mol	–
7.686 K	2.488 ± 0.13 J/K/mol	–
7.698 K	–	2.428 ± 0.13 J/K/mol
7.976 K	3.092 ± 0.17 J/K/mol	–
8 K	3.113 ± 0.17 J/K/mol and 1.446 ± 0.078 J/K/mol and 2.772 ± 0.15 J/K/mol	2.689 ± 0.14 J/K/mol
8.016 K	1.458 ± 0.079 J/K/mol	–
8.018 K	2.783 ± 0.15 J/K/mol	–
8.034 K	–	2.703 ± 0.15 J/K/mol
8.339 K	3.414 ± 0.18 J/K/mol	–
8.366 K	1.661 ± 0.089 J/K/mol	–
8.367 K	3.093 ± 0.17 J/K/mol	–
8.389 K	–	3.029 ± 0.16 J/K/mol
8.718 K	3.76 ± 0.2 J/K/mol	–
8.733 K	3.359 ± 0.18 J/K/mol	–
8.737 K	1.859 ± 0.1 J/K/mol	–
8.753 K	–	3.269 ± 0.18 J/K/mol
9 K	4.029 ± 0.22 J/K/mol and 2.004 ± 0.11 J/K/mol and 3.588 ± 0.19 J/K/mol	3.511 ± 0.19 J/K/mol
9.115 K	4.141 ± 0.22 J/K/mol	–
9.117 K	2.11 ± 0.11 J/K/mol	–
9.118 K	3.738 ± 0.2 J/K/mol	–
9.136 K	–	3.605 ± 0.19 J/K/mol
9.514 K	3.952 ± 0.21 J/K/mol	–
9.518 K	2.336 ± 0.13 J/K/mol	–
9.529 K	4.549 ± 0.24 J/K/mol	–
9.536 K	–	4.033 ± 0.22 J/K/mol
9.931 K	4.428 ± 0.24 J/K/mol	–
9.935 K	2.594 ± 0.14 J/K/mol	–
9.953 K	–	4.356 ± 0.23 J/K/mol
10 K	5.029 ± 0.21 J/K/mol and 2.651 ± 0.11 J/K/mol and 4.482 ± 0.18 J/K/mol	4.413 ± 0.18 J/K/mol
10.12 K	5.166 ± 0.21 J/K/mol	–
10.35 K	4.823 ± 0.2 J/K/mol and 2.874 ± 0.12 J/K/mol	4.741 ± 0.19 J/K/mol
10.59 K	5.656 ± 0.23 J/K/mol	–
10.77 K	5.231 ± 0.21 J/K/mol and 3.187 ± 0.13 J/K/mol	–
10.78 K	–	5.172 ± 0.21 J/K/mol
11.06 K	6.17 ± 0.25 J/K/mol	–
11.24 K	5.701 ± 0.23 J/K/mol and 3.55 ± 0.15 J/K/mol	–
11.25 K	–	5.657 ± 0.23 J/K/mol
11.54 K	6.677 ± 0.27 J/K/mol	–
11.74 K	6.214 ± 0.25 J/K/mol and 3.967 ± 0.16 J/K/mol	–
11.75 K	–	6.171 ± 0.25 J/K/mol
12.06 K	7.299 ± 0.3 J/K/mol	–
12.26 K	6.744 ± 0.27 J/K/mol and 4.399 ± 0.18 J/K/mol	–
12.27 K	–	6.731 ± 0.27 J/K/mol
12.59 K	7.93 ± 0.32 J/K/mol	–
12.81 K	7.34 ± 0.3 J/K/mol and 4.896 ± 0.2 J/K/mol	7.322 ± 0.3 J/K/mol
13.15 K	8.616 ± 0.35 J/K/mol	–
13.37 K	7.965 ± 0.32 J/K/mol and 5.426 ± 0.22 J/K/mol	–
13.38 K	–	7.966 ± 0.32 J/K/mol
13.74 K	9.343 ± 0.38 J/K/mol	–
13.96 K	8.65 ± 0.35 J/K/mol and 6.006 ± 0.24 J/K/mol	–
13.97 K	–	8.66 ± 0.35 J/K/mol
14.35 K	10.14 ± 0.41 J/K/mol	–
14.57 K	9.355 ± 0.38 J/K/mol and 6.627 ± 0.27 J/K/mol	–
14.59 K	–	9.395 ± 0.38 J/K/mol
14.99 K	10.97 ± 0.45 J/K/mol	–
15 K	10.96 ± 0.45 J/K/mol and 7.064 ± 0.29 J/K/mol and 9.871 ± 0.4 J/K/mol	9.887 ± 0.4 J/K/mol
15.22 K	10.14 ± 0.41 J/K/mol and 7.319 ± 0.3 J/K/mol	–
15.23 K	–	10.18 ± 0.41 J/K/mol
15.49 K	11.63 ± 0.47 J/K/mol	–
15.72 K	7.865 ± 0.32 J/K/mol	–
15.73 K	10.74 ± 0.44 J/K/mol	–
15.74 K	–	10.79 ± 0.44 J/K/mol
16.94 K	13.59 ± 0.55 J/K/mol	–
17.17 K	12.58 ± 0.51 J/K/mol	–
17.18 K	9.551 ± 0.39 J/K/mol	12.66 ± 0.52 J/K/mol
18.52 K	15.74 ± 0.64 J/K/mol	–
18.77 K	11.5 ± 0.47 J/K/mol	–
18.78 K	14.67 ± 0.6 J/K/mol	–
18.79 K	–	14.78 ± 0.6 J/K/mol
20 K	17.74 ± 0.72 J/K/mol and 13.06 ± 0.53 J/K/mol and 16.28 ± 0.66 J/K/mol	16.43 ± 0.67 J/K/mol
